Among the test systems are HT-29; MDA-N; U-251; SF-268; IGROV-1; SK-MEL-2; HOP-92; OVCAR-5; UACC-62; Hs-578T; HCT-15; RPMI-8226; ACHN; SN12C; OVCAR-8; SNB-75; A549; SF-539; T47D.
Assay in all cases: inhibition of tumour cell growth, NCI panel, 48 h

The values that follow come from ChEMBL document CHEMBL1201862, “PubChem BioAssay data set” (2004).

Each structure is given as a SMILES string.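 1) Cells in 96-well plates. 2) Compound, 48 h, 5 concentrations. 3) Linear interpolation between surrounding doses. 4) Unreached endpoint = highest concentration. GI50 = concentration required for 50% inhibition of growth.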 Calls of active or inactive are those of the source. Rule as the data show it: active = GI50 up to about 1.1 µM and inactive = higher. Bounds are passed on as bounds.

Regarding `CNC(=S)/N=c1/sc(NC)nc2sc3c(c12)CCCC3`, the GI50 with HT-29 was > 100 µM (inactive); in the assay on MDA-N, > 100 µM (inactive); with U-251, 35.4 µM (inactive); in the assay on SF-268, 34.6 µM (inactive); in the assay on IGROV-1, > 100 µM (inactive); in the assay on SK-MEL-2, > 100 µM (inactive). In addition, the GI50 was 37.3 µM (inactive) in the assay on HOP-92; > 100 µM (inactive) in the assay with OVCAR-5; > 100 µM (inactive) with UACC-62; 29 µM (inactive) in the assay on Hs-578T; over 100 µM with HCT-15; > 100 µM (inactive) in the assay on RPMI-8226. Besides, the GI50 in the assay with ACHN and in the assay with SN12C was > 100 µM (inactive) in each case.
`COc1cccc2ccc(C(=O)c3ccccc3)nc12`: the GI50 with U-251, with OVCAR-8, in the assay with SF-268, with IGROV-1, in the assay on SK-MEL-2 and with OVCAR-5 was > 100 µM (inactive) throughout. Further, the GI50 is > 100 µM (inactive) in the assay on UACC-62; > 100 µM (inactive) with SNB-75; > 100 µM (inactive) in the assay with A549; over 100 µM in the assay with HCT-15; > 100 µM (inactive) with SF-539; > 100 µM (inactive) in the assay on RPMI-8226. The GI50 with ACHN and in the assay on SN12C was > 100 µM (inactive) each time.
As for `O=S1(=O)N=C(NCc2c[nH]c3ccccc23)N(c2ccccc2)c2ccncc21`, the GI50 is > 100 µM (inactive) in the assay on HT-29; 49.4 µM (inactive) in the assay on U-251; 27.4 µM (inactive) in the assay with OVCAR-8; 27.5 µM (inactive) with SF-268; > 100 µM (inactive) in the assay with SK-MEL-2; 22.6 µM (inactive) in the assay with HOP-92. Besides, the GI50 was > 100 µM (inactive) in the assay with OVCAR-5; > 100 µM (inactive) in the assay on UACC-62; 16.8 µM (inactive) with SNB-75; > 100 µM (inactive) with A549; 31.7 µM (inactive) in the assay on Hs-578T; over 100 µM in the assay with HCT-15. Further, the GI50 in the assay on T47D was > 100 µM (inactive); in the assay on SF-539, 66.4 µM (inactive); in the assay on ACHN, > 100 µM (inactive); in the assay on SN12C, 81.7 µM (inactive).
In the case of `Cc1cc(NCC2CC/C(=C\C=C\c3ccccc3)C2=O)no1` (stereo unspecified), the GI50 with HT-29 is > 100 µM (inactive); in the assay with U-251 it was 40.2 µM (inactive); in the assay with OVCAR-8, > 100 µM (inactive); in the assay on SF-268, > 100 µM (inactive); with IGROV-1, > 100 µM (inactive); in the assay on HOP-92, 78.5 µM (inactive). Moreover, the GI50 is > 100 µM (inactive) in the assay with OVCAR-5; 32.1 µM (inactive) with UACC-62; > 100 µM (inactive) with A549; 85.1 µM (inactive) in the assay with Hs-578T; 67.3 µM in the assay with HCT-15; > 100 µM (inactive) with T47D. Besides, the GI50 is > 100 µM (inactive) in the assay with SF-539, 19.5 µM (inactive) with RPMI-8226, 93.8 µM (inactive) in the assay with ACHN and > 100 µM (inactive) in the assay on SN12C.
As for `Cc1ccc(C(=O)N/N=C(\N=N\c2cccc([N+](=O)[O-])c2)c2ccc(N(C)C)cc2)cc1`, the GI50 is 46.5 µM (inactive) in the assay with HT-29; 20.7 µM (inactive) with MDA-N; > 100 µM (inactive) in the assay on U-251; 97.1 µM (inactive) with OVCAR-8; > 100 µM (inactive) in the assay with SF-268; > 100 µM (inactive) in the assay on IGROV-1. Besides, the GI50 was > 100 µM (inactive) in the assay on SK-MEL-2; > 100 µM (inactive) with HOP-92; > 100 µM (inactive) in the assay with OVCAR-5; > 100 µM (inactive) in the assay with A549; > 100 µM (inactive) with Hs-578T; 50.7 µM in the assay with HCT-15. Also, the GI50 was > 100 µM (inactive) in the assay with SF-539, 61.9 µM (inactive) in the assay on RPMI-8226 and > 100 µM (inactive) with SN12C.
In the case of `Nc1nc(Cl)cc(OCC2(CO)CC=CC2)n1`, the GI50 with HT-29 was > 100 µM (inactive); with MDA-N, > 100 µM (inactive); in the assay with U-251, 46.2 µM (inactive); in the assay on OVCAR-8, > 100 µM (inactive); with SF-268 it was > 100 µM (inactive); in the assay on IGROV-1, > 100 µM (inactive). Besides, the GI50 was > 100 µM (inactive) in the assay with HOP-92; > 100 µM (inactive) with OVCAR-5; 27.1 µM (inactive) in the assay with SNB-75; > 100 µM (inactive) in the assay on A549; > 100 µM (inactive) with Hs-578T; over 100 µM in the assay on HCT-15. Also, the GI50 in the assay with SF-539, in the assay on RPMI-8226, in the assay on ACHN and with SN12C was > 100 µM (inactive) each time.
Turning to `Cc1ccc(-n2cc(-c3ccc(Cl)cc3)c(C#N)c2N)cc1`, the GI50 is 14 µM (inactive) with HT-29; 18.5 µM (inactive) in the assay on MDA-N; 14.2 µM (inactive) with U-251; 15.9 µM (inactive) in the assay with OVCAR-8; 18.7 µM (inactive) in the assay with SF-268; 15.9 µM (inactive) with IGROV-1. Further, the GI50 in the assay on SK-MEL-2 is 15.2 µM (inactive); in the assay on HOP-92, 17 µM (inactive); with OVCAR-5 it was 15.1 µM (inactive); with UACC-62, 15.1 µM (inactive); in the assay on SNB-75, 20.3 µM (inactive); with A549, 17.4 µM (inactive). In addition, the GI50 in the assay with Hs-578T was 2.38 µM (inactive); in the assay on HCT-15, 12.1 µM; in the assay with SF-539, 16.6 µM (inactive); with ACHN, 18.7 µM (inactive); in the assay with SN12C, 14.8 µM (inactive).
For the compound `O=C1C(F)=CC(COC(c2ccccc2)(c2ccccc2)c2ccccc2)OC1n1cc(F)c(=O)[nH]c1=O` (stereo unspecified), the GI50 in the assay with HT-29 is 0.412 µM (active); in the assay on MDA-N, 1.11 µM (active); in the assay with U-251, 1.36 µM (inactive); in the assay with OVCAR-8, 1.87 µM (inactive); in the assay with SF-268, 2.9 µM (inactive); in the assay on IGROV-1 it was 1.46 µM (inactive). The GI50 with SK-MEL-2 was 2.91 µM (inactive); in the assay on HOP-92, 2.11 µM (inactive); with OVCAR-5 it was 2.14 µM (inactive); with UACC-62 it was 1.61 µM (inactive); in the assay on SNB-75 it was 2.58 µM (inactive); with A549, 2.18 µM (inactive). Besides, the GI50 in the assay on Hs-578T was 4.24 µM (inactive); with HCT-15 it was 1.67 µM; in the assay with SF-539 it was 1.94 µM (inactive); in the assay with RPMI-8226 it was 0.413 µM (active); in the assay on ACHN it was 1.64 µM (inactive); in the assay with SN12C it was 1.75 µM (inactive).
For `CCOC(=O)C1=CN=C2C(=O)N(c3ccccc3)N(C)C2(C)C1=N` (stereo unspecified), the GI50 in the assay with MDA-N, in the assay with U-251, in the assay with OVCAR-8, with IGROV-1, with SK-MEL-2 and in the assay with HOP-92 was > 100 µM (inactive) each time. The GI50 is > 100 µM (inactive) with OVCAR-5; > 100 µM (inactive) in the assay with UACC-62; > 100 µM (inactive) in the assay on SNB-75; > 100 µM (inactive) with A549; over 100 µM in the assay on HCT-15; > 100 µM (inactive) in the assay with SF-539. For the same compound, the GI50 in the assay on RPMI-8226, in the assay on ACHN and with SN12C was > 100 µM (inactive) throughout.
